We go through eleven molecules from patent US7863465B2, “Antifungal agents” (Merck Sharp & Dohme Corp., priority 2006, dated 2011).

This assay concerns the target T1, glucan synthase (GS) prepared from Candida albicans MY1055 (Candida albicans, UniProt O13428).
T1 construct: Extraction of GS activity from membranes was performed at a protein concentration of 5 mg/mL in extraction buffer; endogenous in cells; host or cells: Candida albicans MY1055 (membranes, detergent extract, product entrapment)
Put plainly: Glucan synthase inhibition (polymerization assay, 96-well, 3H-UDPG incorporation). It counts as biochemical. The following applies: glucan synthase from C. albicans MY1055. As for the experimental part:
The in vitro evaluation of glucan synthase inhibitory activity of compounds was measured in a polymerization assay in 96-well format. Each well contained 100 μL of ^3H-UDPG at 0.5 mM (6000 to 8000 dpm/nmol), 50 mM HEPES pH 7.5 (Sigma), 10% w/v glycerol (Sigma), 1.5 mg/mL bovine serum albumin (Sigma A 9647. Lot 44H0190), 25 mM KF (Fisher), 1 mM EDTA (Gibco Ultrapure), 25 μM GTP-γ-S, enzyme sufficient to give 3 to 6 nmoles incorporation during the 60 min incubation at 22° C., and test compound added from wells in 3-fold serial dilutions in 100% DMSO (1 μL/well). The reaction was stopped by the addition of 100 μL of 20% trichloroacetic acid. Plates were chilled for a minimum of 10 min, and precipitated glucan collected by filtration on GF/C plates (Packard Unifilter®-96), washed with 5 cycles of water (about 1 mL/well each cycle) using a Packard Filtermate Harvester. 40 μL/well scintillation fluid (Packard Ultima Gold TM-XR) was added and the sealed plates counted in a Wallac Beta counter in top-counting mode at an efficiency of approximately 40%.
Stock solutions were stored at 10 mg/mL in DMSO at −20° C. For each new enzyme preparation, the initial titration performed started at 1 mg/mL, which was prepared by making a 10-fold dilution in DMSO (5 μL to 50 μL). 40 μL of this stock was placed in column 12 of a round-bottomed 96-well microtiter plate. 40 μL DMSO was added to columns 1 to 11 in the same row and ten 3-fold serial dilutions performed, by transferring 20 μL from column 12 to column 11 etc., with 4 mixings before each transfer. No test compound was transferred to from column 2 to column 1. Duplicate aliquots of 1 μL of all 12 dilutions were then transferred to the side walls of a 96-well Bioblock 1.1 mL plate (Fisherbrand) to create two rows.
The results were tabulated and a standard plate background was subtracted and the net count transpose-pasted into a Prism file, with final compound concentrations used in ng/mL. Graphs were created in Prism software, using the average of two determinations, and using Prism's curve fitting program (sigmoidal dose response non-linear regression).
Routine analysis was performed with glucan synthase (GS) prepared from Candida albicans MY1055 by the following procedure: MY1055 was grown in 10 liters YPD medium (10 g yeast extract, 20 g tryptone, 20 g glucose per liter) with vigorous shaking at 30° C., to early stationary phase. Cells were harvested by centrifugation, the pellet was washed and frozen at −70° C. until breakage. Thawed pellets were shaken with an equal volume of breakage buffer (50 mM HEPES pH 7.4, 10% glycerol, 1 mM EDTA, 1 mM PMSF, 1 mM DTT) and 4 times their weight of 0.5 mm acid washed glass beads for 2 hours at 4° C. Extent of breakage was assessed visually at 40× magnification. For C. parapsilosis strains, shaking was extended to 3 hours to maximize breakage. After low speed centrifugation to remove cell debris, the supernatant was centrifuged at 100,000×g for 60 min. to separate membranes plus ribosomes from cytoplasmic components. Membranes were further washed two additional times with breakage buffer using the same centrifugation conditions and finally suspended in breakage buffer at 25 to 30 mg/mL protein (Biorad) for storage at −70° C. Extraction of GS activity from membranes was performed at a protein concentration of 5 mg/mL in extraction buffer (50 mM NaPO4 pH 7.5, 0.1 M KCl, 0.1M Na citrate, 20% glycerol, 5 μM GTP-γ-S, 1 mM DTT, 1 mM PMSF, 3 μg/mL pepstatin) plus 0.25% W1 by gentle mixing at 4° C. for 60 min, followed by centrifugation at 100,000×g for 60 min. After centrifugation, clear supernatant was removed from a pellet consisting of a hard layer usually with small amounts of gelatinous unextracted membranes above it. […]

The term IC50 denotes the point on the concentration scale where inhibition reaches its midpoint. Low readings indicate greater potency in that assay, high ones weaker potency in that assay.

T1 sequence (O13428 1-1897): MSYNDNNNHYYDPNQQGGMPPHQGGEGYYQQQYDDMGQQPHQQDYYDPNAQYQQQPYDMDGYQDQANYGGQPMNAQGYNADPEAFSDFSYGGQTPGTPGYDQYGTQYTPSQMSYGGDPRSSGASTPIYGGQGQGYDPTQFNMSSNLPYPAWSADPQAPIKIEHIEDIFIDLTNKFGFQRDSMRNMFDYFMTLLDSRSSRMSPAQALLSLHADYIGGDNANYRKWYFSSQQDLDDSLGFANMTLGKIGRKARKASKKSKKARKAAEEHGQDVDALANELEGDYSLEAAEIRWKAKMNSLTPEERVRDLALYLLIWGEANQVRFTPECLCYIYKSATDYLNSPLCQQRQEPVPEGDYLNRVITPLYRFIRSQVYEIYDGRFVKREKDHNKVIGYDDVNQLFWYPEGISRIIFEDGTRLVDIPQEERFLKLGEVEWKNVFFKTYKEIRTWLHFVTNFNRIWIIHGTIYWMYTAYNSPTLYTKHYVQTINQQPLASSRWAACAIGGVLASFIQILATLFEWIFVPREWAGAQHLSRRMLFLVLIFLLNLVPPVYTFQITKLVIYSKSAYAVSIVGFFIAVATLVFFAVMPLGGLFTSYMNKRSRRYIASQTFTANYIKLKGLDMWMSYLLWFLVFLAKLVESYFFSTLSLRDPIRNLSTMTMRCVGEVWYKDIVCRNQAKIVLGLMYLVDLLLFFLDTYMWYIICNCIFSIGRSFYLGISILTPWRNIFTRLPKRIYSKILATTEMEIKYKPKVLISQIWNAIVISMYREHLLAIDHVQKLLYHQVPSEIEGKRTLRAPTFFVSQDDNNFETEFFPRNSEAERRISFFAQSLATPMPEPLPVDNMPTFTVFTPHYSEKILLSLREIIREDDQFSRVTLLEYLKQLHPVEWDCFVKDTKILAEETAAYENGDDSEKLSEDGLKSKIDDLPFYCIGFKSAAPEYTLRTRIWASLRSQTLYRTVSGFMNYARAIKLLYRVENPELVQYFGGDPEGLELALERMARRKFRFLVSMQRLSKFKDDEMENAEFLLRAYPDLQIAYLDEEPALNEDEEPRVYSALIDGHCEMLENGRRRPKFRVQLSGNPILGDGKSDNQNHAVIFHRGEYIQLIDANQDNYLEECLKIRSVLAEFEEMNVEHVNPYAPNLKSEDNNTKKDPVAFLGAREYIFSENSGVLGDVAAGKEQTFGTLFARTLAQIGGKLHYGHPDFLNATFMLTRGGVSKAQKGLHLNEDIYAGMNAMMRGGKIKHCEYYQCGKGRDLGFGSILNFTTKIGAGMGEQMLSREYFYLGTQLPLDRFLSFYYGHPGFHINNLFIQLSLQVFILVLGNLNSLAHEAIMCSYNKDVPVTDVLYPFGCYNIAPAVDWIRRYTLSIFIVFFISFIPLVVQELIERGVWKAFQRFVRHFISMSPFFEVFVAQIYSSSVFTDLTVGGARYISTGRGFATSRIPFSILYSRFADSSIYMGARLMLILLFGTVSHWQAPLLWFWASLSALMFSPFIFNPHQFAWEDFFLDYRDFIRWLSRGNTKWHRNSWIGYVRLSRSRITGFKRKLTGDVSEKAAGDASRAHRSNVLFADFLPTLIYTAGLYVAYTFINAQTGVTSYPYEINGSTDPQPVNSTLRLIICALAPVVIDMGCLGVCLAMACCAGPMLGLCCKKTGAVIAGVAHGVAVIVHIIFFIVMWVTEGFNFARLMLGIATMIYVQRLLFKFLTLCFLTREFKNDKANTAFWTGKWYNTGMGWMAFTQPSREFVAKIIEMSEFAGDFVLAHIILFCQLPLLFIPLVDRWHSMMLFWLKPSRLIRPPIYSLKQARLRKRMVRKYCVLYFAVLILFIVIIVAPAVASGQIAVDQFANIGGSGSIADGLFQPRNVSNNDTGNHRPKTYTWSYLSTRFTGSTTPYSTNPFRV
T1 sequence (O42825 whole entry partner): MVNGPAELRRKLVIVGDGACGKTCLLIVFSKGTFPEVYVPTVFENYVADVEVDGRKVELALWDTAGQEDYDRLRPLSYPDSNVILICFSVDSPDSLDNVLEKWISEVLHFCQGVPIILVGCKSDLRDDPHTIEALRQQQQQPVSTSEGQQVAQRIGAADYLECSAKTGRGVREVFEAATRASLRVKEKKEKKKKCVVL

As for `COCC(CO[C@H]1[C@H](OC(C)=O)C[C@@]23COC[C@]1(C)[C@@H]2CC[C@H]1C3=CC(=O)[C@@]2(C)[C@H](C(=O)O)[C@@](C)([C@H](C)C(C)C)CC[C@]12C)N(C)C` (stereo partly drawn) [Example 65, (1S,2R,3R,4aR,6aS,7R,8R,10aR,10bR,12aR)-3-(acetyloxy)-2-(2-dimethylamino-3-methoxypropoxy)-8-[(1R)-1,2-dimethylpropyl]-1,6a,8,10a-tetramethyl-6-oxo-1,3,4,6,6a,7,8,9,10,10a,10b,11,12,12a-tetradecahydro-2H-1,4a-(methanooxymethano)chrysene-7-carboxylic acid], 0.161 µM corresponded to half-maximal inhibition (IC50).

For `CC(=O)O[C@@H]1C[C@@]23COC[C@@](C)([C@@H]2CC[C@H]2C3=CC(=O)[C@@]3(C)[C@H](C(=O)O)[C@@](C)([C@H](C)C(C)C)CC[C@]23C)[C@H]1OCC(CN)CN(C)C` (stereo partly drawn) [Example 68, (1S,2R,3R,4aR,6aS,7R,8R,10aR,10bR,12aR)-3-(acetyloxy)-2-(2-aminomethyl-3-dimethylaminopropoxy)-8-[(1R)-1,2-dimethylpropyl]-1,6a,8,10a-tetramethyl-6-oxo-1,3,4,6,6a,7,8,9,10,10a,10b,11,12,12a-tetradecahydro-2H-1,4a-(methanooxymethano)chrysene-7-carboxylic acid], it took 0.205 µM to reach half-maximal inhibition (IC50). The same measure for `CC(=O)O[C@@H]1C[C@@]23COC[C@](C)([C@@H]2CC[C@H]2C3=CC(=O)[C@@]3(C)[C@H](C(=O)O)[C@@](C)([C@H](C)C(C)C)CC[C@]23C)[C@H]1OCC(C)NCc1ccc(CO)o1` (stereo partly drawn) [Example 71, (1S, 2R, 3R, 4aR, 6aS, 7R, 8R, 10aR, 10bR, 12aR)-3-(acetyloxy)-2-{2-[(5-hydroxymethylfuran-2-ylmethyl)-amino]-propoxy}-8-[(1R)-1,2-dimethylpropyl]-1,6a,8,10a-tetramethyl-6-oxo-1,3,4,6,6a,7,8,9,10,10a,10b,11, 12,12a-tetradecahydro-2H-1,4a-(methanooxymethano)chrysene-7-carboxylic acid]: 0.343 µM; for `CCCN(CCC)C(CC)COC1C(OC(C)=O)CC23COCC1(C)C2CCC1C3=CC(=O)C2(C)C(C(=O)O)C(C)(C(C)C(C)C)CCC12C` [Example 81, (1S, 2R, 3R, 4aR, 6aS, 7R, 8R, 10aR, 10bR, 12aR)-3-(acetyloxy)-2-(2-dipropylaminobutoxy)-8-[(1R)-1,2-dimethylpropyl]-1,6a,8, 10a-tetramethyl-6-oxo-1,3,4,6,6a,7,8,9,10,10a, 10b,11,12,12a-tetra decahydro-2H-1,4a-(methanooxymethano) chrysene-7-carboxylic acid]: 0.497 µM. The same measure for `CC(=O)O[C@@H]1C[C@@]23COC[C@](C)([C@@H]2CC[C@H]2C3=CC(=O)[C@@]3(C)[C@H](C(=O)O)[C@@](C)([C@H](C)C(C)C)CC[C@]23C)[C@H]1OCC(C(C)C)N1CCCCC1` (stereo partly drawn) [Example 89, (1S, 2R, 3R, 4aR, 6aS, 7R, 8R, 10aR, 10bR, 12aR)-3-(acetyloxy)-2-(3-methyl-2-piperidin-1-ylbutoxy)-8-[(1R)-1,2-dimethylpropyl]-1,6a,8, 10a-tetramethyl-6-oxo-1,3,4,6,6a,7,8,9,10,10a, 10b,11,12,12a-tetra decahydro-2H-1,4a-(methanooxymethano) chrysene-7-carboxylic acid]: 0.166 µM. Under `CC(=O)O[C@@H]1C[C@@]23COC[C@](C)([C@@H]2CC[C@H]2C3=CC(=O)[C@@]3(C)[C@H](C(=O)O)[C@@](C)([C@H](C)C(C)C)CC[C@]23C)[C@H]1OCCCN` [Example 109, (1S, 2R, 3R, 4aR, 6aS, 7R, 8R, 10aR, 10bR, 12aR)-3-(acetyloxy)-2-(3-aminopropoxy)-8-[(1R)-1,2-dimethylpropyl]-1,6a,8,10a-tetramethyl-6-oxo-1,3,4,6,6a,7,8,9, 10,10a,10b,11,12,12a-tetradeca hydro-2H-1,4a-(methanooxymethano) chrysene-7-carboxylic acid] stands 0.155 µM.

In the case of `CC(=O)O[C@@H]1C[C@@]23COC[C@@](C)([C@@H]2CC[C@H]2C3=CC(=O)[C@@]3(C)[C@H](C(=O)O)[C@@](C)([C@H](C)C(C)C)CC[C@]23C)[C@H]1OCC(C)(C)N(C)C` [Example 114, (1S,2R,3R,4aR,6aS,7R,8R,10aR,10bR,12aR)-3-(acetyloxy)-2-(2-diamino-2-methylpropoxy)-8-[(1R)-1,2-dimethylpropyl]-1,6a,8,10a-tetramethyl-6-oxo-1,3,4,6,6a,7,8,9,10,10a,10b,11,12,12a-tetradecahydro-2H-1,4a-(methanooxymethano)chrysene-7-carboxylic acid], the IC50 was 0.0808 µM. Under `CCC(C)(CO[C@H]1[C@H](OC(C)=O)C[C@@]23COC[C@]1(C)[C@@H]2CC[C@H]1C3=CC(=O)[C@@]2(C)[C@H](C(=O)O)[C@@](C)([C@H](C)C(C)C)CC[C@]12C)N(C)C` (stereo partly drawn) [Example 128, (1S, 2R, 3R, 4aR, 6aS, 7R, 8R, 10aR, 10bR, 12aR)-3-(acetyloxy)-2-(2-dimethylamino-2-methylbutyloxy)-8-[(1R)-1,2-dimethylpropyl]-1,6a,8,10a-tetramethyl-6-oxo-1,3,4,6,6a,7,8,9,10, 10a,10b,11,12,12a-tetradecahydro-2H-1,4a-(methanooxymethano)chrysene-7-carboxylic acid] stands 0.0912 µM. The same measure for `CC(=O)O[C@@H]1C[C@@]23COC[C@@](C)([C@@H]2CC[C@H]2C3=CC(=O)[C@@]3(C)[C@H](C(=O)O)[C@@](C)([C@H](C)C(C)C)CC[C@]23C)[C@H]1OC[C@@](C)(N)C(C)C` [Example 148, (1S,2R,3R,4aR,6aS,7R,8R,10aR,10bR,12aR)-3-acetoxy-2-[[(2S)-2-amino-2,3-dimethylbutyl]oxy]-8-[(1R)-1,2-dimethylpropyl]-1,6a,8,10a-tetramethyl-6-oxo-1,3,4,6,6a,7,8,9,10,10a,10b,11,12,12a-tetradecahydro-2H-1,4a-(methanooxymethano)chrysene-7-carboxylic acid]: 0.0202 µM; for `CN[C@](C)(CO[C@H]1[C@H](OC(C)=O)C[C@@]23COC[C@@]1(C)[C@@H]2CC[C@H]1C3=CC(=O)[C@@]2(C)[C@H](C(=O)O)[C@@](C)([C@H](C)C(C)C)CC[C@]12C)C(C)C` [Example 149, (1S,2R,3R,4aR,6aS,7R,8R,10aR,10bR,12aR)-3-(acetyloxy)-2-[(2S)-2-methylamino-2,3-dimethylbutyloxy]-8-[(1R)-1,2-dimethylpropyl]-1,6a,8,10a-tetramethyl-6-oxo-1,3,4,6,6a,7,8,9,10,10a,10b,11,12,12a-tetradecahydro-2H-1,4a-(methanooxymethano)chrysene-7-carboxylic acid]: 0.0198 µM. Take `CC(=O)O[C@@H]1C[C@@]23COC[C@@](C)([C@@H]2CC[C@H]2C3=CC(=O)[C@@]3(C)[C@H](C(=O)O)[C@@](C)([C@H](C)C(C)C)CC[C@]23C)[C@H]1OC[C@](C)(C(C)C)N(C)C` [Example 150, (1S,2R,3R,4aR,6aS,7R,8R,10aR,10bR,12aR)-3-(acetyloxy)-2-[(2S)-2-dimethylamino-2,3-dimethylbutyloxy]-8-[(1R)-1,2-dimethylpropyl]-1,6a,8,10a-tetramethyl-6-oxo-1,3,4,6,6a,7,8,9,10,10a,10b,11,12,12a-tetradecahydro-2H-1,4a-(methanooxymethano)chrysene-7-carboxylic acid]: the midpoint of inhibition, the IC50, lay at 0.0208 µM.
